# Test results taken from patent US11472805B2, “Tricyclic compounds and their use as phosphodiesterase inhibitors” (Pfizer Inc., priority 2015, dated 2022).
# Experiments:
# Assay type in all cases: biochemical
# Human PDE4B1 = Human PDE4B1 (Homo sapiens (Human), UniProt Q07343, S133E/S654A/S659A/S661A); test: PDE4B1 Scintillation Proximity Assay (SPA), inhibition of enzyme activity; details: Table 9, geometric mean of 2-9 determinations unless otherwise indicated, read-out: Human PDE4B FL
# In short: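 His-tagged enzyme from baculovirus-infected insect cells, Ni-NTA purified. SPA with 1 μM cAMP (20 nM 3H-cAMP tracer) in 50 mM Tris pH 7.5, 1.3 mM MgCl2, 0.01% Brij, […] PDE4B enzyme for ~20% substrate conversion; 30 min at 25 °C, stopped with yttrium silicate beads, read after 8 h settling.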
# Human PDE4A3 = Human PDE4A3 (Homo sapiens (Human), UniProt P27815); test: PDE4A3 Scintillation Proximity Assay (SPA), inhibition of enzyme activity; details: Table 9, geometric mean of 2-9 determinations unless otherwise indicated, read-out: Human PDE4A FL
# In short: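 Recombinant human PDE4A3 expressed in insect cells, purified via Ni-NTA, anti-FLAG and size exclusion. SPA run 30 min at 25 °C in 50 mM Tris pH 7.5, 1.3 mM MgCl2, 0.01% Brij with 1 μM cAMP (20 nM 3H-cAMP), […], ~20% substrate conversion; stopped with yttrium silicate beads.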
# Human PDE4C1 = Human PDE4C1 (Homo sapiens (Human), UniProt Q08493); test: PDE4C1 Scintillation Proximity Assay (SPA), inhibition of enzyme activity; details: Table 9, geometric mean of 2-9 determinations unless otherwise indicated, read-out: Human PDE4C FL
# Protocol: The PDE4A, PDE4B, PDE4C and PDE4D binding affinity for the compounds of the present invention was determined utilizing the following biological assay(s):
# The recombinant Bacmid was isolated and used to transfect insect cells to generate a viral stock. To generate cell paste for purification, insect cells were infected with the virus stock and cells were harvested 72 hours after infection. Insect cell paste was lysed and after centrifugation, the supernatant was batch bound to Ni-NTA agarose (GE Healthcare) and eluted with 250 mM imidazole. This eluate was diluted with FLAG buffer (50 mM Tris HCL pH 7.5, 100 mM NaCl, 5% Glycerol, 1 mM TCEP with protease inhibitors) and batch bound to ant-FLAG M2 agarose (Sigma) overnight at 4° C. The agarose was packed into a column, washed with buffer and eluted with buffer containing elute using 250 ug/ml Flag-peptide. Fractions were analyzed using SDS-PAGE Coomassie blue staining and pooled based on purity. Pooled fractions were chromatographed on a S200 120 ml column (GE Healthcare) in 50 mM Tris HCL pH 7.5, 150 mM NaCl, 10% Glycerol, 2 mM TCEP with protease inhibitors. PDE4C1 fractions were analyzed by SDS-PAGE Coomassie blue staining, pooled based on purity, dialyzed against 50 mM Tris HCL pH 7.5, 100 mM NaCl, 20% Glycerol, 2 mM TCEP, frozen and stored at −80° C.
# The PDE4A3, PDE4B1, PDE4C1 and PDE4D3 assays use the Scintillation Proximity Assay (SPA) technology to measure the inhibition of human recombinant PDE4A1, PDE4B3, PDE4C1, and PDE4D3 enzyme activity by compounds in vitro. The PDE4A1, PDE4B3, PDE4C1, and PDE4D3 assays are run in parallel using identical parameters, except for the concentration of enzyme ([…]). The assays are performed in a 384-well format with 50 uL assay buffer (50 mM TRIS pH7.5; 1.3 mM MgCl2; 0.01% Brij) containing enough PDE4A3, PDE4B1, PDE4C1, and PDE4D to convert ˜20% of substrate (1 μM cAMP consisting of 20 nM 3H-cAMP+[…] cold cAMP) and a range of inhibitors. Reactions are incubated for 30 min at 25° C. The addition of 20 uL of 8 mg/ml yitrium silicate SPA beads (Perkin Elmer) stops the reaction. The plates are sealed (TopSeal, Perkin Elmer) and the beads are allowed to settle for 8 hrs, after which they are read on the Trilux Microbeta overnight.
# human PDE4D3 = human PDE4D3 (Homo sapiens (Human), UniProt Q08499); test: PDE4D3 Scintillation Proximity Assay (SPA), inhibition of enzyme activity; details: Table 9, geometric mean of 2-9 determinations unless otherwise indicated, read-out: Human PDE4D FL
# In short: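 His-tagged human PDE4D3 (aa 50–672), expressed in insect cells, hydrolysed 1 μM cAMP (3H tracer plus cold) for 30 min at 25° C in 50 mM Tris pH 7.5, 1.3 mM MgCl2 and 0.01% Brij. Enzyme level was set for ~20% conversion. Product was read by yttrium silicate SPA beads after 8 h settling.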
# Human PDE4C1, sequence (Q08493 2-712): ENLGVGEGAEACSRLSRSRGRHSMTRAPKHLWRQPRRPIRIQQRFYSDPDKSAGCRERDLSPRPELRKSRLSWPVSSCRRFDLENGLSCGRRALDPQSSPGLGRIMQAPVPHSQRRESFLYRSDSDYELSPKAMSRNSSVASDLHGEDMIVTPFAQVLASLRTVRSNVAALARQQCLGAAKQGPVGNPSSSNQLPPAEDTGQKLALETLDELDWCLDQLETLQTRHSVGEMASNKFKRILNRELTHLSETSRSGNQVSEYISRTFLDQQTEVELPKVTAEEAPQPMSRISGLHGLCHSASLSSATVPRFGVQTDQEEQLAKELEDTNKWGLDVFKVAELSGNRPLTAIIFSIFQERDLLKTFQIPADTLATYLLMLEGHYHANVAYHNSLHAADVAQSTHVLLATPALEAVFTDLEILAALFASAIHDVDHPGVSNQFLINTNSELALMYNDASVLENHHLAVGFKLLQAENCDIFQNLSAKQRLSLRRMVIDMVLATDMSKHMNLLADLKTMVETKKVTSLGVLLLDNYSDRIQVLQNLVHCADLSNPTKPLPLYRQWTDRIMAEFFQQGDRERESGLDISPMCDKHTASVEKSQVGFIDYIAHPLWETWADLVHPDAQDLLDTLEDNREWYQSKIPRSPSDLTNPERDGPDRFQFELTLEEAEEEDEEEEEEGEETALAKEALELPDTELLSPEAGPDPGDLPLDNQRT
# Human PDE4B1, sequence (Q07343 122-736 S133E/S654A/S659A/S661A): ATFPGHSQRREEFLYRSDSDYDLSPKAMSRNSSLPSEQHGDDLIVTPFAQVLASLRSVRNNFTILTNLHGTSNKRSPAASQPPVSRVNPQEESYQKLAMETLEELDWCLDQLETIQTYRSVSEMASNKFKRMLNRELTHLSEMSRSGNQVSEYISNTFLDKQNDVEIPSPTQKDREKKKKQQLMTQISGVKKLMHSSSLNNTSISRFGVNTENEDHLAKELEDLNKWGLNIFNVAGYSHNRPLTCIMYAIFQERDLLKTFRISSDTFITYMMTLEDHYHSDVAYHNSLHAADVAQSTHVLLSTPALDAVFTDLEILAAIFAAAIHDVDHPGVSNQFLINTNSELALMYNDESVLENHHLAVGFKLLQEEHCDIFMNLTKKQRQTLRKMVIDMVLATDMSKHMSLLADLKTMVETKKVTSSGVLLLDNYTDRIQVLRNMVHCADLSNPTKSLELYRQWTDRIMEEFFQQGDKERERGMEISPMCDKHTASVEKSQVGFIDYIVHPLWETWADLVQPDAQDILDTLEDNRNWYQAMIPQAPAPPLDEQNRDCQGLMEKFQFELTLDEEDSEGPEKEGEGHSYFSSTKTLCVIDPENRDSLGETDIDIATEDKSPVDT
# human PDE4D3, sequence (Q08499 186-808): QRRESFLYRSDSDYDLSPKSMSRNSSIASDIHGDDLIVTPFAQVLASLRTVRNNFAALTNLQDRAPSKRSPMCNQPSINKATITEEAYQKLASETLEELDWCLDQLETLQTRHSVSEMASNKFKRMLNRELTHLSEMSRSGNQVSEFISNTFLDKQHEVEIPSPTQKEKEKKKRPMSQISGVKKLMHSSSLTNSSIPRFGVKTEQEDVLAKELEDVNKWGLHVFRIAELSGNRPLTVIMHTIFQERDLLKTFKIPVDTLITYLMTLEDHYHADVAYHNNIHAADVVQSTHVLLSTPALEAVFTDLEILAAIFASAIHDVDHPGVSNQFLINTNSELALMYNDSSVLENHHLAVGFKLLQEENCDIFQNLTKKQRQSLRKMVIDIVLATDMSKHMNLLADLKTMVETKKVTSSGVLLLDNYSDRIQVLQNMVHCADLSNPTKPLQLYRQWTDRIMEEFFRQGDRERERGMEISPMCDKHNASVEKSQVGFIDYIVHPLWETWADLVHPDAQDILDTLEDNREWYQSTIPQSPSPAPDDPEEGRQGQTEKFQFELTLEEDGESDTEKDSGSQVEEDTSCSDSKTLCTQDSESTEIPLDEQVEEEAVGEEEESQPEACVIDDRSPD
# Human PDE4A3, sequence (P27815 other isoform, or with tags, fused parts or gaps): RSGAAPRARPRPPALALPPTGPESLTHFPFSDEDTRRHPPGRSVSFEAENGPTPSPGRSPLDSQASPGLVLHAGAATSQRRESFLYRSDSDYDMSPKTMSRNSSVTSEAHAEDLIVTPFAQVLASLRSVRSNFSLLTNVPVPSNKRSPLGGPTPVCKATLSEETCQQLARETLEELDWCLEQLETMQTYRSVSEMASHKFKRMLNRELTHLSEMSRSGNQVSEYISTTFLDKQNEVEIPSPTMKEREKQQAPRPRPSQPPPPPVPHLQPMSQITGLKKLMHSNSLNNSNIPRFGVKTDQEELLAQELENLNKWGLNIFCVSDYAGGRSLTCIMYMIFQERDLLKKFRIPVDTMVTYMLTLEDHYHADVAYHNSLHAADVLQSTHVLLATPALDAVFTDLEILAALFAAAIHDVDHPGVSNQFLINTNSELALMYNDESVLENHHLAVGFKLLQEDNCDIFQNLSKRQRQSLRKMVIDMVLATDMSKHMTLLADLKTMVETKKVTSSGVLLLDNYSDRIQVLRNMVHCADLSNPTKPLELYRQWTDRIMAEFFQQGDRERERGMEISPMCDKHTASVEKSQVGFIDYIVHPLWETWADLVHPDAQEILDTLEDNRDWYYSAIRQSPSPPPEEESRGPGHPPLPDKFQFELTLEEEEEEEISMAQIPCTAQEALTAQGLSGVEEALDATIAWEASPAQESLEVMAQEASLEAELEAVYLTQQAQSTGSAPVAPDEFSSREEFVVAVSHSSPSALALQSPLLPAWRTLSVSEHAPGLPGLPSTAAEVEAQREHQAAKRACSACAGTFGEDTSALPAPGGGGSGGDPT
SMILES,IC50 (Human PDE4B1),IC50 (Human PDE4A3),IC50 (Human PDE4C1),IC50 (human PDE4D3)
"Cc1cc(Cl)c(F)cc1-c1c2c(n3c1C(=O)N(C1CC1)CC3)CCCO2 [Example 29, 10-(4-Chloro-5-fluoro-2-methylphenyl)-8-cyclopropyl-3,4,7,8-tetrahydro-2H-pyrano[2′,3′:4,5]pyrrolo[1,2-a]pyrazin-9(6H)-one]",1 nM,1 nM,2.45 nM,12.7 nM
"O=C1c2c(-c3ccc(Cl)c(F)c3)c3ncccc3n2CCN1C1CC1 [Example 32, 10-(4-Chloro-3-fluorophenyl)-8-cyclopropyl-7,8-dihydropyrido[2′,3′:4,5]pyrrolo[1,2-a]pyrazin-9(6H)-one]",< 0.7 nM,< 0.45 nM,1.44 nM,9.07 nM
"Cc1ccc(-c2c3n(c4cccnc24)CCN(C2CC2)C3=O)cc1C [Example 33, 8-Cyclopropyl-10-(3,4-dimethylphenyl)-7,8-dihydropyrido[2′,3′:4,5]pyrrolo[1,2-a]pyrazin-9(6H)-one]",6.09 nM,4.93 nM,11.2 nM,497 nM
"N#Cc1cc(-c2c3n(c4cccnc24)CCN(C2CC2)C3=O)ccc1Cl [Example 34, 2-Chloro-5-(8-cyclopropyl-9-oxo-6,7,8,9-tetrahydropyrido[2′,3′:4,5]pyrrolo[1,2-a]pyrazin-10-yl)benzonitrile]",< 0.64 nM,0.98 nM,2.88 nM,23.3 nM
"O=C1c2c(-c3ccc4c(c3)CCO4)c3ncccc3n2CCN1C1CC1 [Example 35, 8-Cyclopropyl-10-(2,3-dihydro-1-benzofuran-5-yl)-7,8-dihydropyrido[2′,3′:4,5]pyrrolo[1,2-a]pyrazin-9(6H)-one]",4.15 nM,2.08 nM,5.52 nM,141 nM
"O=C1c2c(-c3ccc(F)c(Cl)c3)c3ncccc3n2CCN1C1CC1 [Example 36, 10-(3-Chloro-4-fluorophenyl)-8-cyclopropyl-7,8-dihydropyrido[2′,3′:4,5]pyrrolo[1,2-a]pyrazin-9(6H)-one]",< 1.1 nM,< 0.67 nM,3.48 nM,28.1 nM
"Cc1cc(-c2c3n(c4cccnc24)CCN(C2CC2)C3=O)ccc1F [Example 37, 8-Cyclopropyl-10-(4-fluoro-3-methylphenyl)-7,8-dihydropyrido[2′,3′:4,5]pyrrolo[1,2-a]pyrazin-9(6H)-one]",3.76 nM,2.52 nM,3.3 nM,98.7 nM
"O=C1c2c(-c3ccc(F)cc3F)c3ncccc3n2CCN1C1CC1 [Example 38, 8-Cyclopropyl-10-(2,4-difluorophenyl)-7,8-dihydropyrido[2′,3′:4,5]pyrrolo[1,2-a]pyrazin-9(6H)-one]",10.9 nM,5.59 nM,21 nM,569 nM
"O=C1c2c(-c3cc(F)c(F)c(F)c3)c3ncccc3n2CCN1C1CC1 [Example 40, 8-Cyclopropyl-10-(3,4,5-trifluorophenyl)-7,8-dihydropyrido[2′,3′:4,5]pyrrolo[1,2-a]pyrazin-9(6H)-one]",< 0.67 nM,< 0.41 nM,4.36 nM,17.2 nM
"O=C1c2c(-c3cccc(F)c3)c3ncccc3n2CCN1C1CC1 [Example 41, 8-Cyclopropyl-10-(3-fluorophenyl)-7,8-dihydropyrido[2′,3′:4,5]pyrrolo[1,2-a]pyrazin-9(6H)-one]",2.38 nM,1.26 nM,9.22 nM,130 nM

# More lines, now with the values ahead:
IC50 (Human PDE4B1),IC50 (Human PDE4A3),IC50 (Human PDE4C1),IC50 (human PDE4D3),SMILES
23.3 nM,12.2 nM,54.1 nM,1050 nM,"O=C1c2c(-c3ccccc3)c3ncccc3n2CCN1C1CC1 [Example 42, 8-Cyclopropyl-10-phenyl-7,8-dihydropyrido[2′,3′:4,5]pyrrolo[1,2-a]pyrazin-9(6H)-one]"
6.37 nM,33 nM,86 nM,212 nM,"COc1ccc(-c2c3n(c4cccnc24)CCN(C2CC2)C3=O)cc1 [Example 44, 8-Cyclopropyl-10-(4-methoxyphenyl)-7,8-dihydropyrido[2′,3′:4,5]pyrrolo[1,2-a]pyrazin-9(6H)-one]"
5.81 nM,1.59 nM,7.88 nM,281 nM,"COc1ccc(-c2c3n(c4cccnc24)CCN(C2CC2)C3=O)cc1F [Example 45, 8-Cyclopropyl-10-(3-fluoro-4-methoxyphenyl)-7,8-dihydropyrido[2′,3′:4,5]pyrrolo[1,2-a]pyrazin-9(6H)-one]"
4.04 nM,2.29 nM,6.98 nM,203 nM,"O=C1c2c(-c3cc(F)ccc3F)c3ncccc3n2CCN1C1CC1 [Example 46, 8-Cyclopropyl-10-(2,5-difluorophenyl)-7,8-dihydropyrido[2′,3′:4,5]pyrrolo[1,2-a]pyrazin-9(6H)-one]"
1.14 nM,2 nM,2.88 nM,142 nM,"O=C1c2c(-c3ccc(Cl)cc3F)c3ncccc3n2CCN1C1CC1 [Example 47, 10-(4-Chloro-2-fluorophenyl)-8-cyclopropyl-7,8-dihydropyrido[2′,3′:4,5]pyrrolo[1,2-a]pyrazin-9(6H)-one]"
< 0.72 nM,1 nM,3.16 nM,19.8 nM,"O=C1c2c(-c3cccc(Cl)c3)c3ncccc3n2CCN1C1CC1 [Example 48, 10-(3-Chlorophenyl)-8-cyclopropyl-7,8-dihydropyrido[2′,3′:4,5]pyrrolo[1,2-a]pyrazin-9(6H)-one]"
5.79 nM,2.71 nM,9.39 nM,395 nM,"Cc1cc(F)ccc1-c1c2n(c3cccnc13)CCN(C1CC1)C2=O [Example 49, 8-Cyclopropyl-10-(4-fluoro-2-methylphenyl)-7,8-dihydropyrido[2′,3′:4,5]pyrrolo[1,2-a]pyrazin-9(6H)-one]"
6.9 nM,2.99 nM,9.62 nM,356 nM,"Cc1cc(C#N)ccc1-c1c2n(c3cccnc13)CCN(C1CC1)C2=O [Example 50, 4-(8-Cyclopropyl-9-oxo-6,7,8,9-tetrahydropyrido[2′,3′:4,5]pyrrolo[1,2-a]pyrazin-10-yl)-3-methylbenzonitrile]"
26.1 nM,86.7 nM,694 nM,2010 nM,"O=C1c2c(-c3cncc(Cl)c3)c3ncccc3n2CCN1C1CC1 [Example 51, 10-(5-Chloropyridin-3-yl)-8-cyclopropyl-7,8-dihydropyrido[2′,3′:4,5]pyrrolo[1,2-a]pyrazin-9(6H)-one]"
54.6 nM,21.2 nM,35.8 nM,3770 nM,"COc1ccc(-c2c3n(c4cccnc24)CCN(C2CC2)C3=O)c(F)c1 [Example 54, 8-Cyclopropyl-10-(2-fluoro-4-methoxyphenyl)-7,8-dihydropyrido[2′,3′:4,5]pyrrolo[1,2-a]pyrazin-9(6H)-one]"
111 nM,222 nM,500 nM,3700 nM,"O=C1c2c(-c3cncnc3)c3ncccc3n2CCN1C1CC1 [Example 55, 8-Cyclopropyl-10-(pyrimidin-5-yl)-7,8-dihydropyrido[2′,3′:4,5]pyrrolo[1,2-a]pyrazin-9(6H)-one]"
